Measurements published in patent US10344060B2 (priority 2013, dated 2019).

How the values were obtained:
hNav1.7 = hNav1.7 (Homo sapiens, UniProt Q15858); test: cell-based; assay type: cell-based; conditions: Table 12; PatchXpress, tonic block; read-out: PX hNav1.7 Tonic IC50
hNav1.4 = hNav1.4 (Homo sapiens, UniProt P35499); test: cell-based; assay type: cell-based; conditions: Table 12; for IC50: PatchXpress, tonic block, read-out: PX hNav1.4 Tonic IC50; for Nav1.4/Nav1.7: ratio of PX tonic IC50 values
Chain of hNav1.4 (P35499 whole entry): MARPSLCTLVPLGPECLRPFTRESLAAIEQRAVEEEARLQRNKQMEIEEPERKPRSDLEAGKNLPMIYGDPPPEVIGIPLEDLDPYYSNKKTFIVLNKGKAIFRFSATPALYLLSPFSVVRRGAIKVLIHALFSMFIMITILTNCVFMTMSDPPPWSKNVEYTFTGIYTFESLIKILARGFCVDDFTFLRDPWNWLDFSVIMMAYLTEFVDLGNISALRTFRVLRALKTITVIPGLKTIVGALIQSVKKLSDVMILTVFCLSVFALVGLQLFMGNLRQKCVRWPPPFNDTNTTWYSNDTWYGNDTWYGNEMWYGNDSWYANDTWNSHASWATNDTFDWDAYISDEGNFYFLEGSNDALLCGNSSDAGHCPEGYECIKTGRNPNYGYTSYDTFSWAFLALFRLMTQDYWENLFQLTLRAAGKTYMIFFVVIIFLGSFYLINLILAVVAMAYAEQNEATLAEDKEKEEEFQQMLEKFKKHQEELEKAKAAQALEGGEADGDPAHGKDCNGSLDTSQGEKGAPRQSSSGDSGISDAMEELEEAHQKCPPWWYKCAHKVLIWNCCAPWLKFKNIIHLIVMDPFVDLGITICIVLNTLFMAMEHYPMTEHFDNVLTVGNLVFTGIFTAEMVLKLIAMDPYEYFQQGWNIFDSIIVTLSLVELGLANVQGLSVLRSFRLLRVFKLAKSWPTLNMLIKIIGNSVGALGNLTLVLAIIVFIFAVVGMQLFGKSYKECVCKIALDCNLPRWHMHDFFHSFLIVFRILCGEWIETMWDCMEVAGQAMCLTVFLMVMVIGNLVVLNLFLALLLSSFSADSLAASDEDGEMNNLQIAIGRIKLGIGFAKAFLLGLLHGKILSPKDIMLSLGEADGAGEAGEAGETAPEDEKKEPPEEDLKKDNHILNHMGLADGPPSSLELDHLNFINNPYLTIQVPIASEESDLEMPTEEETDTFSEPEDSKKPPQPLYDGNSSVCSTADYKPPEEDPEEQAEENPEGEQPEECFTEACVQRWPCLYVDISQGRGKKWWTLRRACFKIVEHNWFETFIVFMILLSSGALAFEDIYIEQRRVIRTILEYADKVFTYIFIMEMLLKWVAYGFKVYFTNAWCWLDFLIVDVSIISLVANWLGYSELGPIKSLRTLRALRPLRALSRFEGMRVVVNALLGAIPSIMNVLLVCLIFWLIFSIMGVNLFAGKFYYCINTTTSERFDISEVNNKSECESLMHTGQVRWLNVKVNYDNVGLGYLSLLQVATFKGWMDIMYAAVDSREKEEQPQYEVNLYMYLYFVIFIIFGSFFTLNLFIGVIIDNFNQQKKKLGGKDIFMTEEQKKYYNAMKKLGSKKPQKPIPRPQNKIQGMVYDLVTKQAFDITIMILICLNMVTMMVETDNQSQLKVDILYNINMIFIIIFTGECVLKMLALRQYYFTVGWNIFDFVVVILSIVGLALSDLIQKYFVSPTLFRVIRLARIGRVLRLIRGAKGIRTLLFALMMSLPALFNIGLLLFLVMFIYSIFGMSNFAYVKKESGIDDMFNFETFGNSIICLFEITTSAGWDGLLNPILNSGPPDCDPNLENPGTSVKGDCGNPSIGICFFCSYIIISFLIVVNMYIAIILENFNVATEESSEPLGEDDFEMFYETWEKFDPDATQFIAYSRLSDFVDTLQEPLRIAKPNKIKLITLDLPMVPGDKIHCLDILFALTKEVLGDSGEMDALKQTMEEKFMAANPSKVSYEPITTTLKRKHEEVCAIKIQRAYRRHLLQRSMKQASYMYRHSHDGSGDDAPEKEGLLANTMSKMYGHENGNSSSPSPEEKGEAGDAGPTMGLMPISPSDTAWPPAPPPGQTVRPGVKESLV

Chain of hNav1.7 (Q15858 whole entry): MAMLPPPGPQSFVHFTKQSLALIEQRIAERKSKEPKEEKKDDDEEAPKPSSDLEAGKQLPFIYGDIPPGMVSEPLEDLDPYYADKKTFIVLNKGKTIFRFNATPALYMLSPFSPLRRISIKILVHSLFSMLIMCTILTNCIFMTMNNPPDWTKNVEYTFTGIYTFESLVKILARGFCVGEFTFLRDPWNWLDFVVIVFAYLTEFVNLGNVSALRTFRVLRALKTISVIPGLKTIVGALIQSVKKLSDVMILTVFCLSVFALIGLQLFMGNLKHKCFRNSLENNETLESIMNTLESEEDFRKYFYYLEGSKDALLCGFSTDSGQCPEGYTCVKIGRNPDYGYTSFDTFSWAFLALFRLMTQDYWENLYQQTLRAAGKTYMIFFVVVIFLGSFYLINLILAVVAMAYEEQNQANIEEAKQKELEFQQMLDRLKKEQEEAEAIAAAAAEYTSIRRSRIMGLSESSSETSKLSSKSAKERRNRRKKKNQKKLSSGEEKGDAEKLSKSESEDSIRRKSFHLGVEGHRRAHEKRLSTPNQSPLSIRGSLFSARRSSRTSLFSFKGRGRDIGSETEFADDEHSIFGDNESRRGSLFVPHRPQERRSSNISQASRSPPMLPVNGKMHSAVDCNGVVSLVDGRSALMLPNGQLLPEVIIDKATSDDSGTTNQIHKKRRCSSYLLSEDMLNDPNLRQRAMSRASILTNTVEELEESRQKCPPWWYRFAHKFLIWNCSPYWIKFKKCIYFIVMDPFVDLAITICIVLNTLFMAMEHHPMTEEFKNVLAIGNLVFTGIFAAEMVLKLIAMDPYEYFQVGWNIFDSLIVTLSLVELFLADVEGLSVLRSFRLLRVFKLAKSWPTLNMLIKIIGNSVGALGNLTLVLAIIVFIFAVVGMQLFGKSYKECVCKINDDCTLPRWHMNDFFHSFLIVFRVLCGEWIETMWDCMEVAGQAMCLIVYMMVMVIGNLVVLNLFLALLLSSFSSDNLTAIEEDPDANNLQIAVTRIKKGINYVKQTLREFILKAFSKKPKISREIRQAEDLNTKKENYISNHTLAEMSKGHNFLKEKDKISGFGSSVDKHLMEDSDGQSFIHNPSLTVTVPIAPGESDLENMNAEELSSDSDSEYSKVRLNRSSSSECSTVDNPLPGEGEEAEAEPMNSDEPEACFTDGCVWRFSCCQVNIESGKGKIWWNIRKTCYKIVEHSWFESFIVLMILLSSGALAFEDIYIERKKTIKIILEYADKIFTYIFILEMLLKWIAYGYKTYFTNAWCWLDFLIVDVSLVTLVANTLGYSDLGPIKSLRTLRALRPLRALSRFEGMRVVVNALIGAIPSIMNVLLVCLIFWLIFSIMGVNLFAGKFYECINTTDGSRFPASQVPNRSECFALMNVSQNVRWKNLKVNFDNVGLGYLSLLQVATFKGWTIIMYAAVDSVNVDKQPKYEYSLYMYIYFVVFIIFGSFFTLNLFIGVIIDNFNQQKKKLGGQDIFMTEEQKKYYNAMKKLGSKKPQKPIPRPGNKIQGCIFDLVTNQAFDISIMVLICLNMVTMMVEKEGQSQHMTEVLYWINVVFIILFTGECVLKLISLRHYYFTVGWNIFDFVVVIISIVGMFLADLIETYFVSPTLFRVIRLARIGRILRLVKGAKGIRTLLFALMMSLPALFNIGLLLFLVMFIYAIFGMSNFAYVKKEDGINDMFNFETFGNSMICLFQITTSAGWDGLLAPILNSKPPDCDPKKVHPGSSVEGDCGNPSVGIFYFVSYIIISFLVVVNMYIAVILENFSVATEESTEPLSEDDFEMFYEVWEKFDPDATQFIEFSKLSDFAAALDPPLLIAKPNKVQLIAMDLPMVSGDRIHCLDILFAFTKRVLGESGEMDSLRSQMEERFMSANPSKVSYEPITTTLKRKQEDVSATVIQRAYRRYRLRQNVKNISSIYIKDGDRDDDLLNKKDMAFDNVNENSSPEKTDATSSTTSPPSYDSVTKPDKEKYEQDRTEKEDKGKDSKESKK

Row | Compound | IC50 (hNav1.7) | IC50 (hNav1.4) | Nav1.4/Nav1.7 (hNav1.4)
1 | C#CC[C@H](N)C(=O)N[C@@H](Cc1ccc(O)cc1)C(=O)N[C@H]1C[Se][Se]C[C@@H]2NC(=O)[C@@H]3CSSC[C@@H](C(=O)N[C@@H](CCCNC(=N)N)C(=O)N[C@@H](CCCCN)C(=O)N[C@@H](CCC(=O)O)C(=O)N[C@H](C(N)=O)[C@@H](C)CC)NC(=O)[C@H](Cc4c[nH]c5ccccc45)NC(=O)[C@H](CC(C)C)NC(=O)[C@H](CCCCN)NC(=O)[C@H](CSSC[C@H](NC(=O)[C@H]([C@@H](C)O)NC(=O)[C@H](Cc4c[nH]c5ccccc45)NC(=O)[C@H](CCCC)NC(=O)[C@H](Cc4c[nH]c5ccccc45)NC(=O)[C@H](CCCCN)NC(=O)[C@H](CCC(N)=O)NC1=O)C(=O)N[C@@H](CC(=O)O)C(=O)N[C@@H](CO)C(=O)N[C@@H](CCCCN)C(=O)N[C@@H](CCCNC(=N)N)C(=O)N[C@@H](C)C(=O)N3)NC(=O)[C@H](CCCNC(=N)N)NC(=O)[C@H](CC(C)C)NC(=O)CNC(=O)[C@H](CCC(=O)O)NC2=O [compound 838] | 0.949 nM | 58.1 nM | 61
2 | C#CC[C@H](N)C(=O)N[C@@H](Cc1ccc(O)cc1)C(=O)N[C@H]1CSSC[C@@H]2NC(=O)[C@@H]3CSSC[C@@H](C(=O)N[C@@H](CCCNC(=N)N)C(=O)N[C@@H](CCCCN)C(=O)N[C@@H](CCC(=O)O)C(=O)N[C@H](C(N)=O)[C@@H](C)CC)NC(=O)[C@H](Cc4c[nH]c5ccccc45)NC(=O)[C@H]([C@@H](C)CC)NC(=O)[C@H](CCCCN)NC(=O)[C@H](CSSC[C@H](NC(=O)[C@H]([C@@H](C)O)NC(=O)[C@H](Cc4c[nH]c5ccccc45)NC(=O)[C@H](CCCC)NC(=O)[C@H](Cc4c[nH]c5ccccc45)NC(=O)[C@H](CCCCN)NC(=O)[C@H](CCC(N)=O)NC1=O)C(=O)N[C@@H](CC(=O)O)C(=O)N[C@@H](CO)C(=O)N[C@@H](CCCCN)C(=O)N[C@@H](CCCNC(=N)N)C(=O)N[C@@H](C)C(=O)N3)NC(=O)[C@H](CCCNC(=N)N)NC(=O)[C@H](CC(C)C)NC(=O)CNC(=O)[C@H](CCC(=O)O)NC2=O [compound 855] | 1.06 nM | 193 nM | 182
3 | C#CC[C@@H]1NC(=O)[C@H](CC(=O)O)NC(=O)[C@@H]2CSSC[C@@H]3NC(=O)[C@H](CCCNC(=N)N)NC(=O)[C@H](CC(C)C)NC(=O)CNC(=O)[C@H](CCC(=O)O)NC(=O)[C@H](CSSC[C@H](NC(=O)[C@H](Cc4ccc(O)cc4)NC(=O)[C@@H](N)CC#N)C(=O)N[C@@H](CCC(N)=O)C(=O)N[C@@H](CCCCN)C(=O)N[C@@H](Cc4c[nH]c5ccccc45)C(=O)N[C@@H](CCCC)C(=O)N[C@@H](Cc4c[nH]c5ccccc45)C(=O)N[C@@H]([C@@H](C)O)C(=O)N2)NC(=O)[C@H](CSSC[C@@H](C(=O)N[C@@H](CCCNC(=N)N)C(=O)N[C@@H](CCCCN)C(=O)N[C@@H](CCC(=O)O)C(=O)N[C@H](C(N)=O)[C@@H](C)CC)NC(=O)[C@H](Cc2c[nH]c4ccccc24)NC(=O)[C@H](CC(C)C)NC(=O)[C@H](CCCCN)NC3=O)NC(=O)[C@H](C)NC(=O)[C@H](CCCNC(=N)N)NC(=O)[C@H](CCCCN)NC1=O [compound 520] | 0.193 nM | 517 nM | 2673
